{"source": "patent US8729133B2", "about": "“Method for treating cancer” (Cornell University, priority 2006, dated 2014)", "key": {"[1]": {"system": "lactate levels in brain metastases tumors", "assay": "Tumor lactate determination by localized 1H MR spectroscopy before and after oral L-Arginine", "type": "in vivo, human", "procedure": "(§1) L-Arginine hydrochloride was orally administered five times a week, Monday to Friday, during the radiation therapy (RT) course at a dose of about 10 grams dissolved/mixed with about 100 ml of water and administered to a patient/host from about 15-55 to about 20-65 minutes before each fraction of RT. Radiation therapy was administered to patients using techniques known to one skilled in the art of treating cancer patients. After administering L-Arginine hydrochloride to a patient as discussed above, change in lactate levels in the tumor cells was monitored by localized ^1H NMR spectroscopy and compared to those who received placebo.\nSingle-voxel MR spectroscopic data were obtained by using a double-SE point-resolved spectroscopy (PRESS) sequence with one-pulse water signal suppression mainly from metabolically active fleshy parts (contrast-enhanced areas) of the lesions, while avoiding contamination from scalp fat. Appropriate automatic shimming and water suppression were achieved by using 4-8-Hz line width, 1-kHz spectral width, and the automated software developed by the manufacturer. Spectroscopic data from cubic volumes of 1.5×1.5×1.5-2×2×3 cm were obtained by using the PRESS sequence with 1500/135 ms (TR/TE), 128-256 averages, 1024 data points, and 4000-Hz spectrum width. In most examinations, a voxel size of 2×2×2 cm3 was employed.\nThe time domain signal intensity was apodized and processed to remove the residual water signal. Post-processing of the spectroscopic data consisted of frequency shift and phase and linear baseline corrections after Fourier transformation. […] Lactate (Lac) peak was calculated at 1.35 ppm (an inverted β-methyl doublet). […] Lactate values were calculated automatically from the area under the peak by using the standard commercial software program provided by the manufacturer.\nL-A-HCl was administered (as stated) to 30 patients with unresectable brain metastases. […] Patients were assessed by brain NMR and/or TC (to asses tumor response) and proton magnetic spectroscopy (to determine the metabolic profile of tumors). […]"}, "brain metastases": {"system": "brain metastases", "assay": "Randomized study: whole brain radiotherapy with or without oral L-Arginine hydrochloride in patients with unresectable brain metastases (response, survival)", "type": "in vivo, human", "procedure": "as §1\nPatients with imagenologically proven brain metastases and histologically proven primary or metastatic cancer were eligible for the study. The eligibility criteria included the following: RPA-RTOG class II, measurable brain lesion/s by contrast-enhanced CT or MRI, absolute granulocyte count >2000/mm^3, hemoglobin […] (patients with lower levels were transfused), normal renal (serum creatinine <1.5 mg/dL and 24-h creatinine clearance >60 mL/min) and hepatic functions (aspartate aminotransferase and alanine aminotransferase <2.5 times the upper limit of normal) and no prior treatment for brain metastases. A neurosurgeon examined all eligible patients and their complimentary studies to determine whether their metastases were resectable. Eligible patients with unresectable metastases were randomized.\nThe present study was performed in accordance with the ethical standards of the Helsinki Declaration. Within two weeks after the diagnosis of brain metastases, eligible patients were randomly assigned to receive whole brain radiotherapy alone (the control group) or L-Arginine monochlorohydrate (L-Arginine Hydrochloride, L-A-HCl) and whole brain radiotherapy. L-Arginine was orally administered, once a day Monday to Friday, during the radiation therapy (RT) course at a dose of about 10 grams, immediately reconstituted with 100 ml of water and given about 55 to 65 minutes before each fraction of RT.\nDuring RT, all patients were irradiated with ^60Co beams. The whole-brain, of all the individuals enrolled in the study, was treated by two lateral fields to a total dose of 32 Gy in 20 fractions of 1.6 Gy each two times a day with a 6 hours interval between treatments (10 days), followed by a 22.4 Gy boost over the evident lesions with the same fractionation schedule (7 days). The spinal cord dose was limited to 40 Gy.\nThe baseline evaluation included a complete history and physical examination, brain contrast-enhanced CT scans and/or MRI scans, chest radiographs, blood counts, blood chemistry and electrocardiography. A Mini Mental Status Exam (MMSE) was performed for screening intellectual impairment. During the treatment, patients were to be seen three times a week, then weekly for up to one month after finishing radiotherapy, and then monthly until the patient died. All patients were followed up, by the radiation and medical oncology research physicians, without further treatment.\nThe following criteria defined radiological response and progression. Complete response was defined as a disappearance of all brain lesions seen on contrast-enhanced CT or MRI scans for at least 1 month. Partial response required at least a 50% decrease in brain lesions for at least 1 month. Stable disease was defined as any brain lesion with shrinkage less than 50% or growth less than 25%. Disease progression was defined as any brain lesion in the brain that enlarged more than 25% or any new brain lesion. For measurable disease, standard bi-perpendicular diameters of the two-dimensional tumor image at maximum dimension were applied.\nThe following criteria defined symptomatic response and progression. Complete response was defined as disappearance of all neurological-related signs or symptoms seen during a physical exam for at least 1 month, with stable or decreasing steroid dose. […]"}, "[2]": {"conditions": "30 patients with unresectable brain metastases vs 30 placebo"}}}
{"molecule": "Cl.N=C(N)NCCC[C@H](N)C(=O)O", "note": "[L-Arginine, S(+)-2-Amino-5-[(aminoiminomethyl)amino]pentanoic acid monohydrochloride]", "values": [{"measurement": "metabolic pattern of the tumors by spectroscopy", "setting": "[1]; about 10 grams orally, in about 60 minutes", "value": "favorably modified"}, {"measurement": "drop of lactate levels in tumors", "setting": "[1]; brain metastases, about 60 minutes after about 10 grams orally, NMR (FIG. 2), placebo about 10%", "value": "about 50%"}, {"measurement": "lactate peak in tumor NMR spectrum after vs before administration", "setting": "[1]; brain metastasis, about 60 minutes after about 10 grams orally", "value": "decrease"}, {"measurement": "survival compared to placebo", "setting": "brain metastases; [2]", "value": "higher"}, {"measurement": "tumoral response rates compared to placebo", "setting": "brain metastases; [2]", "value": "higher"}, {"measurement": "Overall Response: Complete", "setting": "brain metastases; RT-Arginine n = 22", "value": "6 number of patients"}, {"measurement": "Overall Response: Partial", "setting": "brain metastases; RT-Arginine n = 22", "value": "13 number of patients"}, {"measurement": "Overall Response: Stable Disease", "setting": "brain metastases; RT-Arginine n = 22", "value": "2 (9%) number of patients (%)"}, {"measurement": "Radiologic Response: Complete", "setting": "brain metastases; RT-Arginine n = 22", "value": "6 number of patients"}, {"measurement": "Radiologic Response: Partial", "setting": "brain metastases; RT-Arginine n = 22", "value": "13 number of patients"}, {"measurement": "Radiologic Response: Progressive Disease", "setting": "brain metastases; RT-Arginine n = 22", "value": "0 number of patients"}, {"measurement": "Radiologic Response: Stable Disease", "setting": "brain metastases; RT-Arginine n = 22", "value": "2 (9%) number of patients (%)"}, {"measurement": "Symptomatic Response: Complete", "setting": "brain metastases; RT-Arginine n = 22", "value": "20 number of patients"}, {"measurement": "Symptomatic Response: Partial", "setting": "brain metastases; RT-Arginine n = 22", "value": "1 number of patients"}, {"measurement": "Symptomatic Response: Progressive Disease", "setting": "brain metastases; RT-Arginine n = 22", "value": "0 (0%) number of patients (%)"}, {"measurement": "Symptomatic Response: Stable Disease", "setting": "brain metastases; RT-Arginine n = 22", "value": "1 (5%) number of patients (%)"}, {"measurement": "Overall Response: Total responses", "setting": "brain metastases; RT-Arginine n = 22, ECOG response guidelines", "value": "18 (81%) number of patients (%)"}, {"measurement": "Symptomatic Response: Total responses", "setting": "brain metastases; RT-Arginine n = 22, about 10 grams orally before each RT fraction", "value": "21 (95%) number of patients (%)"}, {"measurement": "Radiologic Response: Total responses", "setting": "brain metastases; RT-Arginine n = 22, contrast-enhanced CT or MRI", "value": "18 (81%) number of patients (%)"}, {"measurement": "Overall Response: Progressive Disease", "setting": "brain metastases; RT-Arginine n = 22, not assessed counted as progressive", "value": "1 (5%) number of patients (%)"}, {"measurement": "Radiologic Response: Not assessed", "setting": "brain metastases; RT-Arginine n = 22, patients without follow-up scan", "value": "1 (5%) number of patients (%)"}, {"measurement": "median survival time", "setting": "brain metastases; patients with brain metastases, about 10 grams L-Arginine orally, Kaplan-Meier (FIG. 1), placebo 2 months", "value": 8, "unit": "months"}]}
